Patent publication US12729182B2, “Crystalline forms of N,N-dimethyltryptamine and methods of using the same” (priority 2022, dated 2026)
“Also recorded” adds a separate entry of the source.

Key:
Type in all cases: physicochemical
[1] = Stable form screen slurries, form by XRPD; settings: for Relative thermodynamic stability of the polymorph (conclusion from slurries): slurries at RT, 40° C., about 2 weeks
Protocol: Slurrying: Suspensions were prepared by adding enough solids to a given solvent at the stated conditions so that undissolved solids were present. The mixture was then agitated (typically by stirring or oscillation) in a sealed vial at a given temperature for an extended period of time.
Slurry experiments were conducted to determine the relative stability of Forms I, III, and IV. The screening conditions are tabulated at Tables 9-11.
In these experiments, saturated solutions containing excess undissolved solids were stirred for extended durations. […] Slurries were conducted RT, 40° C., 5° C., and −20° C. for approximately 2 weeks.

[2] = Thermogravimetric analysis (TGA), decomposition; settings: 25 to 350° C. at 10° C./min under nitrogen
Protocol: TGA or TGA/DSC analyses were performed using a Mettler-Toledo TGA/DSC3+ analyzer. Temperature and enthalpy adjustments were performed using indium, tin, zinc, and phenyl salicylate, and then verified with indium. The balance was verified with calcium oxalate. The sample was placed in an aluminum pan. The pan was hermetically sealed, the lid pierced, and the pan was then inserted into the TG furnace. A weighed aluminum pan configured as the sample pan was placed on the reference platform. The furnace was heated under nitrogen. Samples were analyzed from 25° C. to 350° C. at 10° C./min. Thermogravimetric analyses typically experience a period of equilibration at the start of each analysis, indicated by parentheses on the thermograms in the Figures section (V). The starting temperature for relevant weight loss calculations is selected at a point beyond this region (typically above 35° C.) for accuracy.

[3] = Solid state heating experiments, form conversion
[4] = Cycling DSC of amorphous N,N-DMT prepared in situ (glass transition)
Protocol: A cycling DSC experiment was performed to investigate a potential glass transition temperature by preparing amorphous solids in situ, starting with Form IV.
At the start of the experiment, Form IV solids were heated past the melt (to 80° C.) and held for 10 minutes. The melted material was quickly cooled to −80° C., then reheated to 200° C. A glass transition (Tg) is observed as a step in the green curve at −18° ° C. Amorphous materials tend to spontaneously crystallize at temperatures above the Tg.

[5] = Slurry competition (interconversion) studies between Forms I and IV in heptane; settings: mixture of Form I and Form IV, pre-saturated heptane, 7 d
Protocol: Interconversion slurries were conducted in heptane at RT, −20° C., and 40° C. as in Table 12. In these slurries, the heptane was pre-saturated with N,N-DMT using Form IV solids at the stated temperature, and a portion of the liquid phase was filtered into a mixture of Form I and Form IV solids.

[6] = Aqueous solubility by solvent addition, visual assessment; settings: water, calculated from total solvent used
[7] = Hygroscopicity by dynamic vapor sorption (DVS)

## CN(C)CCc1c[nH]c2ccccc12 [Form III, N,N-dimethyltryptamine]
[1]; 5° C., −20° C.
  Relative thermodynamic stability of the polymorph (conclusion from slurries): metastable across all temperatures; also recorded: metastable at all conditions tested
[1]; start Form III, EtOAc/heptane (5:95), −20° C., 15 d
  XRPD Result after slurry: Form I
[1]; start Form III, IPAc/heptane (3:97), RT, 13 d
  XRPD Result after slurry: Form IV
[1]; start Form III, MeOH/water (20:80), 5° C., 15 d, sample oily before analysis
  XRPD Result after slurry: amorphous
[1]; start Form III, heptane, RT, 15 d
  XRPD Result after slurry: Form I
[2]
  Decomposition (steep drop in TGA thermogram) begins above: > 240 °C
[3]; held between 35° C. and 40° C.
  Form conversion on solid state heating: concurrently melt and recrystallize to Form IV

## CN(C)CCc1c[nH]c2ccccc12 [amorphous N,N-DMT, N,N-dimethyltryptamine]
[4]; Form IV melted at 80° C., 10 min, cooled to −80° C., reheated to 200° C.
  Glass transition (Tg): −18 °C
[4]; heating/melting experiments, −20° C. to 40° C., above Tg
  Physical stability of amorphous material: readily crystallize; also recorded: poor physical stability

## CN(C)CCc1c[nH]c2ccccc12 [Form I and Form IV, N,N-dimethyltryptamine]
[5]; 40° C.
  XRPD Result after competition slurry: Form IV
[5]; RT
  XRPD Result after competition slurry: Form IV
[5]; −20° C.
  XRPD Result after competition slurry: Form IV

## CN(C)CCc1c[nH]c2ccccc12 [Form I, N,N-dimethyltryptamine]
[1]; start Form I, EtOAc/cyclohexane (5:95), attempted slurry, RT, 13 d
  XRPD Result after slurry: Form I
[1]; start Form I, IPA/water (10:90), 5° C., 13 d
  XRPD Result after slurry: Form I
[1]; start Form I, THF/water (5:95), attempted slurry, RT, 13 d
  XRPD Result after slurry: Form IV
[1]; start Form I, acetone/water (10:90), 5° C., 13 d
  XRPD Result after slurry: Form IV
[1]; start Form I, cyclohexane, RT, 13 d
  XRPD Result after slurry: Form I
[1]; start Form I, heptane, RT, 13 d
  XRPD Result after slurry: Form I
[1]; start Form I, heptane, −20° C., 17 d
  XRPD Result after slurry: Form I
[6]; thermodynamic from solid
  solubility: < 1000 µg/mL
[7]; at 60% RH
  Hygroscopicity [DVS], water uptake: 0.04 wt % water at
[7]; at 90% RH
  Hygroscopicity [DVS], water uptake: 60% RH and 0.18%
[7]; post-DVS solids dried at 60° C.
  Form after DVS cycle and drying: form change; also recorded: recrystallized upon cooling to ambient temperature to lower-melting Form III

## CN(C)CCc1c[nH]c2ccccc12 [Form IV, N,N-dimethyltryptamine]
[1]; 5° C., −20° C.
  Relative thermodynamic stability of the polymorph (conclusion from slurries): most thermodynamically stable polymorph; also recorded: remained unchanged upon slurrying in various solvent systems; also recorded: most thermodynamically stable form
[1]; start Form IV, EtOAc/heptane (5:95), −20° C., 13 d
  XRPD Result after slurry: Form IV
[1]; start Form IV, MeOH/water (20:80), 5° C., 13 d
  XRPD Result after slurry: Form IV
[1]; start Form IV, acetone/water (10:90), RT, 13 d
  XRPD Result after slurry: Form IV
[1]; start Form IV, heptane, RT, 13 d
  XRPD Result after slurry: Form IV
[6]
  Aqueous solubility: (<1) mg/mL
[2]
  Decomposition (steep drop in TGA thermogram) begins above: > 240 °C
[3]; heating at 50° C. for 10 minutes
  Form change on solid state heating: no changes
